According to patent US20120129811A1, “TRICYCLIC INHIBITORS OF PRO-MATRIX METALLOPROTEINASE ACTIVATION” (priority 2010, published 2012):
Counter-ions that a name gives are not always drawn.

Legend:
[1] = biological target: T1, proMMP9(67-444;ΔFnII) (SEQ ID NO:5) (Homo sapiens, UniProt P14780, DEL216-390); assay: ThermoFluor binding assay with proMMP9(67-444;ΔFnII)
T1 construct: start methionine (N); made in house; host or cells: E. coli BL21(DE3) RIL
T1 sequence (P14780 with tags, fused parts or gaps DEL216-390): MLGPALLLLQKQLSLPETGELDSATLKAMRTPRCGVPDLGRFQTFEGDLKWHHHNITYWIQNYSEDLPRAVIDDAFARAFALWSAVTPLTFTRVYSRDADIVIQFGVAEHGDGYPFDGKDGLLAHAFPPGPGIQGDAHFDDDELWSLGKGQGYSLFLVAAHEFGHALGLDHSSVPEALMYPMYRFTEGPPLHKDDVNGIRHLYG
How it was run: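 Thermal shift of 3.5 μM proMMP9(67-444;ΔFnII), desalted beforehand, with 50 μM 1,8-ANS in 50 mM HEPES pH 7.0, 100 mM NaCl, 2.5 mM MgCl2, 300 μM CaCl2, 0.001% Tween-20. Heated 40–90 °C at 1 °C/min, fluorescence read at 500 nm; binding fitted from Tm shifts using DSC- and ThermoFluor-derived unfolding parameters.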

[2] = biological target: T2, proMMP9(20-445;ΔFnII) (SEQ ID NO:6) (Homo sapiens, UniProt P14780, DEL216-390); assay: ThermoFluor binding assay with proMMP9(20-445;ΔFnII)
T2 construct: start methionine (N); made in house; host or cells: E. coli BL21(DE3) RIL
T2 sequence (P14780 with tags, fused parts or gaps DEL216-390): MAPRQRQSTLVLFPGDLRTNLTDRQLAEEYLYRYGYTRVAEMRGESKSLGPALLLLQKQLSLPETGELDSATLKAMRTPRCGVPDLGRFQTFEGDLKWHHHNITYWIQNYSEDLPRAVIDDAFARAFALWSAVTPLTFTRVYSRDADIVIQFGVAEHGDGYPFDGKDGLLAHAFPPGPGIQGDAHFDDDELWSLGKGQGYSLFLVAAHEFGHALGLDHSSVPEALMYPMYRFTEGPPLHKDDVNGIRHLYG
How it was run: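 Protein thermal stability was measured with 2.8 μM proMMP9(20-445;ΔFnII) and 50 μM 1,8-ANS in 50 mM HEPES pH 7.0, 100 mM NaCl, 0.001% Tween-20, 2.5 mM MgCl2, 300 μM CaCl2, across serial compound dilutions. Samples were heated 40–90° C at 1° C/min with fluorescence read at 500 nm. Tm was fitted, and binding was derived from thermodynamic parameters obtained by DSC and ThermoFluor.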

[3] = biological target: T3, full-length proMMP9(1-707) activation by catalytic MMP3 (Homo sapiens, UniProt P14780, R574P); assay: proMMP9/MMP3 P126 Activation Assay; format: biochemical
T3 construct: made in house; host or cells: proMMP9: HEK293 (secreted); MMP3: E. coli
T3 sequence (P14780 20-707 R574P): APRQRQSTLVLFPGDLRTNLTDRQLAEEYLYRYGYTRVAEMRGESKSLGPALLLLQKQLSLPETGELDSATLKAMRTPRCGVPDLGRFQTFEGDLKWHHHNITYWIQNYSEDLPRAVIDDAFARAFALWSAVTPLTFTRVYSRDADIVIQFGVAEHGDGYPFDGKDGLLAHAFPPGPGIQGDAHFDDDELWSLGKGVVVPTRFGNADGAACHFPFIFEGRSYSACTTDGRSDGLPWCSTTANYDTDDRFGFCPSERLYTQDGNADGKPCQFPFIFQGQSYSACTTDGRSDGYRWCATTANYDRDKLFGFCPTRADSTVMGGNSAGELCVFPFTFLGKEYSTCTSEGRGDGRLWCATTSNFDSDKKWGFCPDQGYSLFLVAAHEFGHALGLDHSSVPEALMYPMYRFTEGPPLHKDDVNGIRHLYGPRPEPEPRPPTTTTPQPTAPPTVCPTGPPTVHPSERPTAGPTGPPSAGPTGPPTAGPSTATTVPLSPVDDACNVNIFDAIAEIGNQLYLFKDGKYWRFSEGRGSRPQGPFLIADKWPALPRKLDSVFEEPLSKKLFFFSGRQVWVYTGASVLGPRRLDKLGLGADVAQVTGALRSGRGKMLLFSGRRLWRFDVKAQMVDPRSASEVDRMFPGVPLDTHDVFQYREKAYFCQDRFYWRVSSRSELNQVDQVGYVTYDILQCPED
Method: proMMP9/MMP3 P126 Activation Assay
The reaction volume was 50 μL. […] Reactivity of residual MMP3 towards P-126 substrate was minimal under these conditions.

[4] = biological target: T4, proMMP13(1-268) (SEQ ID NO:7) (Homo sapiens, UniProt P45452); assay: ThermoFluor binding assay with proMMP13(1-268)
T4 construct: 6xHis (C); made in house; host or cells: HEK293 (transient, secreted)
Method: The ThermoFluor® (TF) assay is a 384-well plate-based binding assay that measures thermal stability of proteins (Biomol Screen 2001, 6, 429-40; Biochemistry 2005, 44, 5258-66). The experiments were carried out using instruments available from Johnson & Johnson Pharmaceutical Research & Development, LLC. TF dye used in all experiments was […] (1,8-ANS) (Invitrogen: A-47).
Compounds were arranged in a pre-dispensed plate (Greiner Bio-one: 781280), wherein compounds were serially diluted in 100% DMSO across 11 columns within a series. Columns 12 and 24 were used as DMSO reference and contained no compound. For multiple compound concentration-response experiments, the compound aliquots (50 nL) were robotically predispensed directly into black 384-well polypropylene PCR microplates (Abgene: TF-0384/k) using a Cartesian Hummingbird liquid handler (DigiLab, Holliston, Mass.). Following compound dispense, protein and dye solutions were added to achieve the final assay volume of 3 μL. The assay solutions were overlayed with 1 μL of silicone oil (Fluka, type DC 200: 85411) to prevent evaporation.
Assay plates were robotically loaded onto a thermostatically controlled PCR-type thermal block and then heated from 40 to 90° C. at a ramp-rate of 1° C./min for all experiments. Fluorescence was measured by continuous illumination with UV light (Hamamatsu LC6) supplied via fiber optics and filtered through a band-pass filter (380-400 nm; >60D cutoff). Fluorescence emission of the entire 384-well plate was detected by measuring light intensity using a CCD camera (Sensys, Roper Scientific) filtered to detect 500±25 nm, resulting in simultaneous and independent readings of all 384 wells. A single image with 20-sec exposure time was collected at each temperature, and the sum of the pixel intensity in a given area of the assay plate was recorded vs temperature and fit to standard equations to yield the Tm (J Biomol Screen 2001, 6, 429-40).
Thermodynamic parameters necessary for fitting compound binding for each proMMP were estimated by differential scanning calorimetry (DSC) and from ThermoFluor® data. The heat capacity of unfolding for each protein was estimated from the molecular weight and from ThermoFluor® dosing data.
ThermoFluor® with proMMP13(1-268) (SEQ ID NO: 7)
The proMMP13(1-268) (SEQ ID NO:7) protein sample preparations included a desalting buffer exchange step via a PD-10 gravity column (GE Healthcare). The desalting buffer exchange was performed prior to diluting the protein to the final assay concentration of 3.5 μM. The concentration of proMMP13(1-268) (SEQ ID NO:7) was estimated spectrophotometrically based on a calculated extinction coefficient of ε280=37000 M^−1 cm^−1, a calculated molecular weight of 30.8 kDa, and calculated pI of 5.33. ThermoFluor® reference conditions were defined as follows: 100 μg/mL proMMP13(1-268) (SEQ ID NO:7), 25 μM 1,8-ANS, pH 7.0 Buffer (50 mM HEPES pH 7.0, 100 mM NaCl, 0.001% Tween-20, 2.5 mM MgCl2, 300 μM CaCl2). The thermodynamic parameters for proMMP13(1-268) (SEQ ID NO:7) are as follows: Tm (° C.)=67 (+/−0.1), ΔUH(Tm)) (cal mol^−1)=107000(+/−5000), ΔUSTm (cal mol^−1 K^−1)=318, ΔUCp (cal mol^−1 K^−1)=2600.

Row | Kd [1] | Kd [2] | IC50 [3] | Kd [4] | SMILES
1 | 810 nM | 3600 nM | 2800 nM | 7000 nM | COc1ccccc1Nc1nc2c(ccc3sc(N)nc32)s1 [Example 1, N^7-(2-Methoxy-phenyl)-benzo[2,1-d;3,4-d′]-bisthiazole-2,7-<diamine.TFA]
2 | 410 nM | 2200 nM | 1300 nM | 8700 nM | COc1ccccc1Nc1nc2c(ccc3nc(N)sc32)s1 [Example 2, N^7-(2-Methoxy-phenyl)-benzo[1,2-d;3,4-d′]-bisthiazole-2,7-diamine.TFA]
3 | 410 nM | 320 nM | 920 nM | 730 nM | CC(C)Oc1ccc(C(N)=O)cc1Nc1nc2c(ccc3nc(N)sc32)s1 [Example 5, 3-(2-Amino-benzo[1,2-d;3,4-d′]bisthiazol-7-ylamino)-4-isopropoxy-benzamide.TFA]
4 | 290 nM | 2400 nM | 660 nM | 11000 nM | COc1ccccc1Nc1nc2c(ccc3[nH]c(N)nc32)s1 [Example 6, N^2-(2-Methoxy-phenyl)-6H-imidazo[4′,5′:3,4]benzo[2,1-d]thiazole-2,7-diamine]
5 | 680 nM | 3100 nM | 1200 nM | 1800 nM | COc1ccc(OC)c(Nc2nc3c(ccc4nc(N)sc43)s2)c1 [Example 8, N^7-(2,5-Dimethoxy-phenyl)-benzo[1,2-d;3,4-d′]-bisthiazole-2,7-diamine.TFA]
6 | 4400 nM | 27000 nM | 10000 nM | 18000 nM | CC(C)Oc1ccccc1Nc1nc2c(ccc3nc(N)sc32)s1 [Example 9, N^7-(2-Isopropoxy-phenyl)-benzo[1,2-d;3,4-d′]-bisthiazole-2,7-diamine.TFA]
7 | 91 nM | 940 nM | 130 nM | 710 nM | CC(C)Oc1ccc(C(=O)O)cc1Nc1nc2c(ccc3[nH]c(N)nc32)s1 [Example 10, 3-(7-Amino-6H-imidazo[4′,5′:3,4]benzo[2,1-d]thiazol-2-ylamino)-4-isopropoxy-benzoic acid.HCl]
8 | 720 nM | 1300 nM | 250 nM | 470 nM | CC(C)Oc1ccc(C(N)=O)cc1Nc1nc2c(ccc3[nH]c(N)nc32)s1 [Example 11, 3-(7-Amino-6H-imidazo[4′,5′:3,4]benzo[2,1-d]thiazol-2-ylamino)-4-isopropoxy-benzamide.HCl]
9 | 3800 nM | 1700 nM | 1100 nM | 6500 nM | Cc1nc2c(s1)-c1nc(Nc3cc(C(N)=O)ccc3OC(C)C)sc1CC2 [Example 12, 4-Isopropoxy-3-(2-methyl-4,5-dihydro-benzo[1,2-d;3,4-d′]-bisthiazol-7-ylamino)-benzamide.TFA]
10 | 390 nM | 230 nM | 420 nM | 2200 nM | Cc1nc2ccc3sc(Nc4cc(C(N)=O)ccc4OC(C)C)nc3c2s1 [Example 13, 4-Isopropoxy-3-(2-methyl-benzo[1,2-d;3,4-d′]bisthiazol-7-ylamino)-benzamide.TFA]
11 | 550 nM | 2400 nM | 1100 nM | 20000 nM | COc1ccccc1Nc1nc2c(s1)CCCc1nc(N)sc1-2 [Example 14, N^8-(2-Methoxy-phenyl)-5,6-dihydro-4H-1,7-dithia-3,9-diaza-cyclopenta[e]azulene-2,8-diamine.TFA]
12 | 9900 nM | > 95000 nM | 3500 nM | 33000 nM | Nc1nc2c(ccc3sc(Nc4cccc(C(=O)O)c4)nc32)[nH]1 [Example 15, 3-(7-Amino-6H-imidazo[4′,5′:3,4]benzo[2,1-d]thiazol-2-ylamino)-benzoic acid.TFA]
13 | 990 nM | 5000 nM | 890 nM | 19000 nM | COc1ccccc1Nc1nc2c(ccc3[nH]c(NC(C)=O)nc32)s1 [Example 16, N-[2-(2-Methoxy-phenylamino)-6H-imidazo[4′,5′:3,4]benzo[2,1-d]thiazol-7-yl]-acetamide.TFA]
14 | 550 nM | 880 nM | 630 nM | 3400 nM | CC(=O)Nc1nc2c(ccc3sc(Nc4cc(C(N)=O)ccc4OC(C)C)nc32)[nH]1 [Example 18, 3-(7-Acetylamino-6H-imidazo[4′,5′:3,4]-benzo[2,1-d]thiazol-2-ylamino)-4-isopropoxy-benzamide.HCl]
15 | 380 nM | 460 nM | 350 nM | 2200 nM | Cc1nc2c(ccc3sc(Nc4cc(C(N)=O)ccc4OC(C)C)nc32)[nH]1 [Example 19, 4-Isopropoxy-3-(7-methyl-6H-imidazo[4′,5′:3,4]benzo[2,1-d]thiazol-2-ylamino)-benzamide.HCl]
16 | 190 nM | 1400 nM | 240 nM | 1900 nM | Cc1nc2c(ccc3sc(Nc4cc(C(=O)O)ccc4OC(C)C)nc32)[nH]1 [Example 20, 4-Isopropoxy-3-(7-methyl-6H-imidazo[4′,5′:3,4]-benzo[2,1-d]thiazol-2-ylamino)-benzoic acid.HCl]
17 | 330 nM | 410 nM | 500 nM | 3500 nM | CC(C)Oc1ccc(C(N)=O)cc1Nc1nc2c(ccc3[nH]c(CO)nc32)s1 [Example 21, 3-(7-Hydroxymethyl-6H-imidazo[4′,5′:3,4]-benzo[2,1-d]thiazol-2-ylamino)-4-isopropoxy-benzamide.HCl]
18 | 970 nM | 590 nM | 840 nM | 3000 nM | CC(C)Oc1ccc(C(N)=O)cc1Nc1nc2c(ccc3[nH]c(=O)[nH]c32)s1 [Example 23, 4-Isopropoxy-3-(7-oxo-7,8-dihydro-6H-imidazo[4′,5′:3,4]benzo[2,1-d]thiazol-2-ylamino)-benzamide.TFA]
19 | 520 nM | 1200 nM | 380 nM | 8400 nM | Cc1nc2ccc3sc(Nc4cc(C(=O)O)ccc4OC(C)C)nc3c2s1 [Example 24, 4-Isopropoxy-3-(2-methyl-benzo[1,2-d;3,4-d′]bisthiazol-7-ylamino)-benzoic acid.HCl]
